Data set [1] is described as follows: Cytotoxicity against human MT2 cells assessed as inhibition of cell growth measured after 3 days by CCK8 assay. The data set is classed as toxicity, cell-based. The settings on record: time 3 day.
For data set [2], the system named is Human immunodeficiency virus 1. Put plainly: Antiviral activity against HIV1 IIIB infected in human MT2 cells assessed as inhibition of viral growth incubated for 30 mins by ELISA assay. Format: functional, organism-based. The settings on record: Human immunodeficiency virus 1, IIIB, MT2, 0.5 h. On the technique in general: An ELISA detects its analyte on a solid surface through an enzyme-linked reagent.

In the case of `CC[C@@H](C)[C@@H](CN(CC(=O)N[C@@H](CCC(=O)O)CN(CC(=O)N[C@@H](CC(C)C)CN(CC(N)=O)S(=O)(=O)CC(C)C)S(=O)(=O)c1ccc(C(=O)O)cc1)S(=O)(=O)CC(C)C)NC(=O)CN(C[C@H](CCCCN)NC(=O)CN(C[C@H](Cc1ccc(O)cc1)NC(=O)CN(C[C@H](CCC(=O)O)NC(=O)CN(C[C@@H](NC(=O)CN(C[C@H](CCCCN)NC(=O)CN(C[C@H](Cc1c[nH]c2ccccc12)NC(=O)CN(C[C@H](CCC(=O)O)NC(=O)CN(C[C@H](Cc1c[nH]c2ccccc12)NC(=O)CN(C[C@H](CCSC)NC(C)=O)S(=O)(=O)CC(C)C)S(=O)(=O)CC(C)C)S(=O)(=O)c1ccc(C(=O)O)cc1)S(=O)(=O)CC(C)C)S(=O)(=O)CCN)[C@H](C)CC)S(=O)(=O)CC(C)C)S(C)(=O)=O)S(=O)(=O)CC(C)C)S(=O)(=O)CCN`, the CC50 at 72 h in data set [1] was > 40 µM. For the same compound, the IC50 in data set [2] was > 40 µM.

Consider `CC[C@@H](C)[C@@H](CN(CC(=O)N[C@@H](CCC(=O)O)CN(CC(=O)N[C@@H](CC(C)C)CN(CC(N)=O)S(=O)(=O)CC(C)C)S(C)(=O)=O)S(=O)(=O)CC(C)C)NC(=O)CN(C[C@H](CCCCN)NC(=O)CN(C[C@H](Cc1ccc(O)cc1)NC(=O)CN(C[C@H](CCC(=O)O)NC(=O)CN(C[C@@H](NC(=O)CN(C[C@H](CCCCN)NC(=O)CN(C[C@H](Cc1c[nH]c2ccccc12)NC(=O)CN(C[C@H](CCC(=O)O)NC(=O)CN(C[C@H](Cc1c[nH]c2ccccc12)NC(=O)CN(C[C@H](CCSC)NC(C)=O)S(=O)(=O)CC(C)C)S(=O)(=O)CC(C)C)S(=O)(=O)c1ccc(C(=O)O)cc1)S(=O)(=O)CC(C)C)S(=O)(=O)CCN)[C@H](C)CC)S(=O)(=O)CC(C)C)S(=O)(=O)c1ccc(C(=O)O)cc1)S(=O)(=O)CC(C)C)S(=O)(=O)CCN`, for which, in data set [1], the CC50 at 72 h is > 40 µM. Also, the IC50 in data set [2] was > 40 µM.

In the case of `CC[C@@H](C)[C@@H](CN(CC(=O)N[C@@H](CCC(=O)O)CN(CC(=O)N[C@H](CO)CN(CC(=O)N[C@@H](CCCCN)CN(CC(=O)N[C@H](CN(CC(=O)N[C@@H](CCC(=O)O)CN(CC(=O)N[C@@H](CC(C)C)CN(CC(N)=O)S(=O)(=O)CC(C)C)S(=O)(=O)c1ccc(C(=O)O)cc1)S(=O)(=O)CC(C)C)[C@H](C)CC)S(=O)(=O)CCN)S(=O)(=O)CC(C)C)S(=O)(=O)c1ccc(C(=O)O)cc1)S(=O)(=O)CC(C)C)NC(=O)CN(C[C@@H](CCCCN)NC(=O)CN(C[C@H](Cc1c[nH]c2ccccc12)NC(=O)CN(C[C@H](CCC(=O)O)NC(=O)CN(C[C@H](Cc1c[nH]c2ccccc12)NC(=O)CN(C[C@H](CCSC)NC(C)=O)S(=O)(=O)CC(C)C)S(=O)(=O)CC(C)C)S(=O)(=O)c1ccc(C(=O)O)cc1)S(=O)(=O)CC(C)C)S(=O)(=O)CCN`, in data set [1], the CC50 at 72 h was > 100 µM. Besides, the 50% inhibitory concentration (IC50) in data set [2] is > 100 µM.

Turning to `CC[C@@H](C)[C@@H](CN(CC(=O)N[C@@H](CCC(=O)O)CN(CC(=O)N[C@@H](Cc1ccc(O)cc1)CN(CC(=O)N[C@@H](CCCCN)CN(CC(=O)N[C@H](CN(CC(=O)N[C@@H](CCC(=O)O)CN(CC(=O)N[C@@H](CC(C)C)CN(CC(N)=O)S(=O)(=O)CC(C)C)S(=O)(=O)c1ccc(C(=O)O)cc1)S(=O)(=O)CC(C)C)[C@H](C)CC)S(=O)(=O)CCN)S(=O)(=O)CC(C)C)S(=O)(=O)c1ccc(C(=O)O)cc1)S(=O)(=O)CC(C)C)NC(=O)CN(C[C@H](CCCCN)NC(=O)CN(C[C@@H](Cc1c[nH]c2ccccc12)NC(=O)CN(C[C@H](CCC(=O)O)NC(=O)CN(C[C@H](Cc1c[nH]c2ccccc12)NC(=O)CN(C[C@H](CCSC)NC(C)=O)S(=O)(=O)CC(C)C)S(=O)(=O)CC(C)C)S(C)(=O)=O)S(=O)(=O)CC(C)C)S(=O)(=O)CCN`, the CC50 at 72 h in data set [1] was > 40 µM. Besides, in data set [2], the IC50 was > 40 µM.

For the compound `CC[C@@H](C)[C@@H](CN(CC(=O)N[C@@H](CCC(=O)O)CN(CC(=O)N[C@@H](CC(C)C)CN(CC(=O)N[C@@H](CCCCN)CN(CC(=O)N[C@@H](C)CN(CC(=O)N[C@@H](CCC(=O)O)CN(CC(=O)N[C@@H](CCCCN)CN(CC(=O)N[C@@H](CCCCN)CN(CC(=O)N[C@@H](CCC(=O)O)CN(CC(=O)N[C@@H](CCC(=O)O)CN(CC(=O)N[C@@H](CC(C)C)CN(CC(=O)N[C@@H](CCCCN)CN(CC(N)=O)S(=O)(=O)CCN)S(=O)(=O)CC(C)C)S(=O)(=O)c1ccc(C(=O)O)cc1)S(=O)(=O)c1ccc(C(=O)O)cc1)S(=O)(=O)CCN)S(=O)(=O)CCN)S(=O)(=O)c1ccc(C(=O)O)cc1)S(C)(=O)=O)S(=O)(=O)CCN)S(=O)(=O)CC(C)C)S(=O)(=O)c1ccc(C(=O)O)cc1)S(=O)(=O)CC(C)C)NC(C)=O`, the CC50 at 72 h in data set [1] is > 40 µM. Further, in data set [2], the IC50 is > 40 µM.

For `CC[C@H](C)[C@H](NC(=O)[C@H](CC(C)C)NC(=O)[C@H](CCC(=O)O)NC(=O)[C@H](CCC(=O)O)NC(=O)[C@@H](NC(=O)[C@H](CCCCN)NC(=O)[C@H](CCCCN)NC(=O)[C@@H](NC(=O)[C@H](Cc1ccc(O)cc1)NC(=O)[C@H](CCC(=O)O)NC(=O)[C@H](CCC(=O)O)NC(=O)[C@@H](NC(=O)[C@H](CCCCN)NC(=O)[C@H](CCCCN)NC(=O)[C@H](CC(=O)O)NC(=O)[C@H](Cc1cc2ccccc2[nH]1)NC(=O)[C@H](CCC(=O)O)NC(=O)[C@H](CCC(=O)O)NC(=O)[C@H](Cc1cc2ccccc2[nH]1)NC(=O)[C@@H](NC(=O)[C@H](CCSC)NC(C)=O)[C@@H](C)O)[C@@H](C)CC)[C@H](C)O)[C@@H](C)CC)C(=O)N[C@@H](CCCCN)C(=O)N[C@@H](CCCCN)C(=O)N[C@@H](CO)C(N)=O`, the IC50 in data set [2] amounted to 0.001 µM.

Turning to `CC[C@@H](C)[C@@H](CN(CC(=O)N[C@@H](CCC(=O)O)CN(CC(=O)N[C@@H](CC(C)C)CN(CC(N)=O)S(=O)(=O)CC(C)C)S(C)(=O)=O)S(=O)(=O)CC(C)C)NC(=O)CN(C[C@H](CCCCN)NC(=O)CN(C[C@H](Cc1ccc(O)cc1)NC(=O)CN(C[C@H](CCC(=O)O)NC(=O)CN(C[C@@H](NC(=O)CN(C[C@H](CCCCN)NC(=O)CN(C[C@H](Cc1c[nH]c2ccccc12)NC(=O)CN(C[C@@H](CCC(=O)O)NC(=O)CN(C[C@H](Cc1c[nH]c2ccccc12)NC(=O)CN(C[C@H](CCSC)NC(C)=O)S(=O)(=O)CC(C)C)S(=O)(=O)CC(C)C)S(C)(=O)=O)S(=O)(=O)CC(C)C)S(=O)(=O)CCN)[C@H](C)CC)S(=O)(=O)CC(C)C)S(C)(=O)=O)S(=O)(=O)CC(C)C)S(=O)(=O)CCN`, the CC50 at 72 h in data set [1] was > 100 µM. The half-maximal inhibitory concentration (IC50) in data set [2] was > 100 µM.

Regarding `CC[C@@H](C)[C@@H](CN(CC(=O)N[C@@H](CCC(=O)O)CN(CC(=O)N[C@@H](CC(C)C)CN(CC(N)=O)S(=O)(=O)CC(C)C)S(=O)(=O)c1ccc(C(=O)O)cc1)S(=O)(=O)CC(C)C)NC(=O)CN(C[C@H](CCCCN)NC(=O)CN(C[C@H](Cc1ccc(O)cc1)NC(=O)CN(C[C@H](CCC(=O)O)NC(=O)CN(C[C@@H](NC(=O)CN(C[C@H](CCCCN)NC(=O)CN(C[C@H](Cc1c[nH]c2ccccc12)NC(=O)CN(C[C@H](CCC(=O)O)NC(=O)CN(C[C@H](Cc1c[nH]c2ccccc12)NC(=O)CN(C[C@H](CCSC)NC(C)=O)S(=O)(=O)CC(C)C)S(=O)(=O)CC(C)C)S(=O)(=O)c1ccc(C(=O)O)cc1)S(=O)(=O)CC(C)C)S(=O)(=O)CCN)[C@H](C)CC)S(=O)(=O)CC(C)C)S(=O)(=O)c1ccc(C(=O)O)cc1)S(C)(=O)=O)S(=O)(=O)CCN`, the 50% cytotoxic concentration (CC50) at 72 h in data set [1] is > 100 µM. Moreover, the IC50 in data set [2] is > 100 µM.

Usually CC50 stands for the concentration giving 50% cytotoxicity. As usually defined, the IC50 is the concentration that gives 50% inhibition.

Source of the values: ChEMBL document CHEMBL5365482, “Rational Design of Sulfonyl-γ-AApeptides as Highly Potent HIV-1 Fusion Inhibitors with Broad-Spectrum Activity” (J Med Chem, 2023).
